Tests used:
CYP2B6 = target: T1, CYP2B6 (Homo sapiens, UniProt P20813); test: CYP450 inhibition in human liver microsomes
T1 sequence (P20813 1-491): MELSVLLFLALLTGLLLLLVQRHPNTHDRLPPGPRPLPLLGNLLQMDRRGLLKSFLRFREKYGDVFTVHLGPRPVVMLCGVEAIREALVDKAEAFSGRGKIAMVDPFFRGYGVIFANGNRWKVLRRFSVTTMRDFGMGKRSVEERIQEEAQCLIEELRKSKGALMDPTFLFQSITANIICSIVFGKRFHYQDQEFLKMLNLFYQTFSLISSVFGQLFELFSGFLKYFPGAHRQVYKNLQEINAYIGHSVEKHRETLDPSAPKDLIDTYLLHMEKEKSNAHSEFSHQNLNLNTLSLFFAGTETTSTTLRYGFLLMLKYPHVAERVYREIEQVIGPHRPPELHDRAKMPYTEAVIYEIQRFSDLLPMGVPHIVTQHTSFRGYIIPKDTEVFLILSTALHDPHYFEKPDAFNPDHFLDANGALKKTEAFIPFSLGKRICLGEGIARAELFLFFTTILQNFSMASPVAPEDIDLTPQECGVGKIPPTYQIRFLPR

phosphodiesterase PDE5 = target: T2, phosphodiesterase PDE5 (Homo sapiens, UniProt O76074); test: Inhibition of phosphodiesterase PDE5; format: biochemical; conditions: human platelets; read-out: IC50 against phosphodiesterase PDE5
T2 construct: from tissue; host or cells: human platelets
Experimental: Acta 1976, 429, 485-497 and Nicholson et al., Trends Pharmacol. Sci. 1991, 12, 19-27. Human platelets were used in this assay. The final DMSO concentration in the assay was about 1%. The assay was pre-incubated at 25° C. for 15 min and then incubated at 25° C. for 20 min in an incubation buffer (50 mM Tris-HCl, pH 7.5, 5 mM MgCl2). The assay was quantitated by measuring the amount of [^3H]guanosine.

[1] = test system: GM-CSFR/JAK2/STAT5 pathway in csTF-1 cells; test: csTF-1 cell-based reporter assay; conditions: Homo sapiens, GM-CSF at 2 ng/mL, beta-lactamase reporter, read-out: EC50, inhibition of GM-CSF stimulated reporter activity
Experimental: After 16 hr incubation, cells were seeded at 2×10^5 cell/well in 50 μL volume, into Costar, clear bottom, 96-well assay plates. Serial dilutions of compounds were added to the plates with final DMSO concentration at 0.5% and GM-CSF at 2 ng/mL and the plates were then incubated at 30° C. and 5% CO2 for 4 hrs. The plates were brought to room temperature before adding Substrate Mixture according to manufacturer's protocol (Invitrogen, Catalog #K1085). The assay plates containing the substrate mixture were incubated in the dark at room temperature for 2 hrs. Blue and green fluorescence were measured with excitation at 409 nm and emission at 460 nm (for blue) and excitation at 409 nm and emission at 530 nm (for green) using Spectra Max Gemini EM.

CYP2C8 = target: T3, CYP2C8 (Homo sapiens, UniProt P10632); test: CYP450 inhibition in human liver microsomes
T3 sequence (P10632 1-490): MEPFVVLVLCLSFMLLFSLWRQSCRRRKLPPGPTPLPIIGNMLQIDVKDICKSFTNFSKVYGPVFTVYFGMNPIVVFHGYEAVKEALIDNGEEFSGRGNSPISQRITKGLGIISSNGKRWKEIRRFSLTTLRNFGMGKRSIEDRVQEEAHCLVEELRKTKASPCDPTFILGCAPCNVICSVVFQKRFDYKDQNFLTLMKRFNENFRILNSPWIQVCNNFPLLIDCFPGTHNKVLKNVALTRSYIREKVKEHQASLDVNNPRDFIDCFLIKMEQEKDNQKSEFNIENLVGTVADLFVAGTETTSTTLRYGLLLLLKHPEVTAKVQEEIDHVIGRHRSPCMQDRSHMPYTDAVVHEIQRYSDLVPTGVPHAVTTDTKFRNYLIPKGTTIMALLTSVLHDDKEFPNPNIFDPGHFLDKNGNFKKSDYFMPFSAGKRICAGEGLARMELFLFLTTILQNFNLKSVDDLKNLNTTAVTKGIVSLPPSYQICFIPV

CYP2D6 = CYP2D6 (Homo sapiens, UniProt P10635); test: CYP450 inhibition in human liver microsomes
[2] = Pharmacokinetic studies in monkeys; conditions: for AUCall / Cl-obs / Cmax: monkeys
Experimental: (§1) Three male cynomolgus monkeys were fasted overnight and through four hours postdose. Two 100 μL aliquots of each dosing formulation were taken predose. Three monkeys were given a single gavage dose of a test compound at 10 mg/kg, followed by an approximately 10.0 mL tap water flush of the gavage tube. After a 1 week washout period, two of the three monkeys received a single IV bolus dose of a test compound at 1 mg/kg in a peripheral vein followed by approximate 1.0 mL saline flush.

melatonin MT = target: T4, melatonin MT (Homo sapiens, UniProt P48039); test: Melatonin MT GTPγS binding assay; format: biochemical; conditions: GTPγS bound relative to 2-iodomelatonin response, CHO-K1 cells; read-out: IC50 against melatonin
T4 construct: expressed in transfected cells; host or cells: CHO-K1
Experimental: […] CHO-K1 cells Chinese hamster ovary were used in this assay. The final DMSO concentration in the assay was about 0.4%. The assay mixture was incubated at 30° C. for 30 min in an incubation buffer (20 mM HEPES, pH 7.4, 100 mM NaCl, 10 mM MgCl2, 1 mM DTT, and 1 mM EDTA). The assay was quantitated by measuring the amount of [^35S]GTPγS bound relative to 2-iodomelatonin response.

CYP1A2 = target: T5, CYP1A2 (Homo sapiens, UniProt P05177); test: CYP450 inhibition in human liver microsomes
T5 sequence (P05177 1-516): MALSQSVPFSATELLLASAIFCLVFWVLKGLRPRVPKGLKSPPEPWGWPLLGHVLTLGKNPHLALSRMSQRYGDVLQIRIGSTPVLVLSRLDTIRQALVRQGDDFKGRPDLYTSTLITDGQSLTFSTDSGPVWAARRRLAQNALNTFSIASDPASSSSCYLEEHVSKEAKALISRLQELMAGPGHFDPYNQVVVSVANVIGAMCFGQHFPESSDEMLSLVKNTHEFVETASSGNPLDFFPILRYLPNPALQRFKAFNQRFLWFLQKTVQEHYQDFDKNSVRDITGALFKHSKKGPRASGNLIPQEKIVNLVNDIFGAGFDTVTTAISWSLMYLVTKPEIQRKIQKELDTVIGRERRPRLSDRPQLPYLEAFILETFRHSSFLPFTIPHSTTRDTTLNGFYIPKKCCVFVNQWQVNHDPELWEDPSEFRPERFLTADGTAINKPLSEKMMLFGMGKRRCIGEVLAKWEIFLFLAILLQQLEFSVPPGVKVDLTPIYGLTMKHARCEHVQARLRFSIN

[3] = cynomolgus monkey, in vivo
Experimental: as §1

in vivo = conditions: male, cynomolgus monkey
Experimental: as §1

[4] = Racemic administered IV 1 mg/kg, chiral analysis, label = analyte
[5] = Racemic administered PO 10 mg/kg, chiral analysis, label = analyte
[6] = compound administered IV 1 mg/kg, analyte = compound administered
[7] = compound administered PO 10 mg/kg, analyte = compound administered

Chain of CYP2D6 (P10635 whole entry): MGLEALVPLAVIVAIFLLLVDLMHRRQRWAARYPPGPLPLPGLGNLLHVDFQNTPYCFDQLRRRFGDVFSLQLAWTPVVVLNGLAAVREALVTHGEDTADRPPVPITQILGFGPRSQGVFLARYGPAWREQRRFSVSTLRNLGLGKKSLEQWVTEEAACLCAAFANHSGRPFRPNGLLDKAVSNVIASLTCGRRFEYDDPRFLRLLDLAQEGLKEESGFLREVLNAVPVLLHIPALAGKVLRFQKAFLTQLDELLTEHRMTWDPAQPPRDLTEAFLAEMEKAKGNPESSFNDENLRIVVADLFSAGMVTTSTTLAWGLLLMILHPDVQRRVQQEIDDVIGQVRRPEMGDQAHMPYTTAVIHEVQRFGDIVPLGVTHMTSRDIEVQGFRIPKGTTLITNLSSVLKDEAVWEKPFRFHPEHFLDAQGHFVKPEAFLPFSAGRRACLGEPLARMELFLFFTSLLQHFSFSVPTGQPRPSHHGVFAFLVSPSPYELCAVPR
T4 sequence (P48039 whole entry): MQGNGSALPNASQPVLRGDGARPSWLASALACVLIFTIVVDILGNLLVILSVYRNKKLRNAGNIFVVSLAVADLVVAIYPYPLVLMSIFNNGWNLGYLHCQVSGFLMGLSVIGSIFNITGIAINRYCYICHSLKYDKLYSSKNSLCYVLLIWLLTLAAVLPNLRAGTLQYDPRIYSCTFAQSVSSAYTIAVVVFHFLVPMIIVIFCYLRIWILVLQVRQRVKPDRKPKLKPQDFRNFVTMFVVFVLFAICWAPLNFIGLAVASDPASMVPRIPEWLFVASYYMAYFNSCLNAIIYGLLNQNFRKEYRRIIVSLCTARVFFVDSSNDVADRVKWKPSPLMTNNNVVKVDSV

| SMILES | IC50 (CYP2B6) [µM] | IC50 (phosphodiesterase PDE5) [µM] | EC50 [1] [µM] | IC50 (CYP2C8) [µM] | IC50 (CYP2D6) [µM] | bioavailability ([2]; male, cynomolgus monkey, in vivo, 10 mg/kg) [%] | AUCall [2, 4] [µM·h] | Cl-obs [2, 4] [mL/min/kg] | AUCall [2, 5] [µM·h] | Cmax [2, 5] [µM] | AUCall [2, 6] [µM·h] | Cl-obs [2, 6] [mL/min/kg] | AUCall [2, 7] [µM·h] | Cmax [2, 7] [µM] | IC50 (melatonin MT) [µM] | IC50 (CYP1A2) [µM] | share of the Cmax and AUC values determined for the racemic compound ([3]; male) | bioavailability (in vivo) [%] | enantiomers present in plasma ([3]; po) |
| --- | --- | --- | --- | --- | --- | --- | --- | --- | --- | --- | --- | --- | --- | --- | --- | --- | --- | --- | --- |
| Cc1cc(Nc2nc(C(O)c3ccc(F)cc3)nc3ccccc23)n[nH]1 (racemic) [Racemate] | > 40 | 9.34 | 0.07 | 23.1 | > 40 | > 100 | 2.19 | 21.27 | 46.20 | 5.76 | 2.19 | 21.27 | 46.20 | 5.76 | 9.75 | < 0.31 | – | – | – |
| Cc1cc(Nc2nc([C@H](O)c3ccc(F)cc3)nc3ccccc23)n[nH]1 [(R)(−)] | > 40 | – | 0.075 | 26.9 | > 40 | – | – | – | – | – | – | – | – | – | – | 1.7 | over 85% | > 100 | – |
| Cc1cc(Nc2nc([C@@H](O)c3ccc(F)cc3)nc3ccccc23)n[nH]1 [(S)(+)] | > 40 | – | 0.038 | 22.7 | > 40 | – | – | – | – | – | – | – | – | – | – | < 0.31 | – | 89 | both enantiomers were present in plasma in almost equal proportions |
